Experiment [1] has as its target T1, SisCsx1 (Saccharolobus islandicus, UniProt F0NE21).
T1 construct: gene SiRe_0884; full-length His-tagged, expressed from pSe-Csx1 in S. islandicus delta-csx1 delta-alpha; 300 kDa hexamer (trimer of dimers); CARF-HTH-HEPN; cOA4 site between two CARF domains; residues printed up to A454
T1 sequence (F0NE21 1-454): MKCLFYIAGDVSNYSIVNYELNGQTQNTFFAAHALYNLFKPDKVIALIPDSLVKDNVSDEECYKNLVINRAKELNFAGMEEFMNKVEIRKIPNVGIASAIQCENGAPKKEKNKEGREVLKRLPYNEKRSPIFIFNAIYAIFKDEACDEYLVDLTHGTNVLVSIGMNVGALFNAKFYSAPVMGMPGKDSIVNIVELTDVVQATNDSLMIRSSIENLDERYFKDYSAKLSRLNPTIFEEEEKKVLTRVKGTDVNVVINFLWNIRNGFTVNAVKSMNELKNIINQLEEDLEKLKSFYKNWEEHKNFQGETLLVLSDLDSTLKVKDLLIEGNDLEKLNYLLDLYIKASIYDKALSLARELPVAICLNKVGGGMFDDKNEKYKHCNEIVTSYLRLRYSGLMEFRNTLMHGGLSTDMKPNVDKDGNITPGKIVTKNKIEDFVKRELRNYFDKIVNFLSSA
Kind of experiment: native gel shift with […]-labelled cOA4. Format: binding.

The target of experiment [2] is T1, SisCsx1. As to the kind of experiment: fluorescent dark-RNA cleavage (activation dose response). Format: biochemical. Particulars: 1-128 nM cOA4, 34 nM SisCsx1, 0.2 µM dark-RNA, 70 °C, 3 min; allosteric activator.
The target of experiment [3] is Sulfolobus islandicus Csx1 (Sulfolobus islandicus). Kind of experiment: SEC-MALS; Superdex 200 Increase 10/300 GL, room temperature, 20 mM Tris pH 8.0, 300 mM NaCl; 50 ul injected at 1.9 mg/ml.
The target of experiment [4] is Sulfolobus islandicus Csx1 I383A/L390D/R391A mutant (Sulfolobus islandicus). Described as above.

As a reminder, the Kd is the concentration at which binding is half-saturated. On to `Nc1ncnc2c1ncn2[C@@H]1O[C@@H]2COP(=O)(O)O[C@H]3[C@@H](O)[C@H](n4cnc5c(N)ncnc54)O[C@@H]3COP(=O)(O)O[C@H]3[C@@H](O)[C@H](n4cnc5c(N)ncnc54)O[C@@H]3COP(=O)(O)O[C@H]3[C@@H](O)[C@H](n4cnc5c(N)ncnc54)O[C@@H]3COP(=O)(O)O[C@H]2[C@H]1O` [cOA4], for which the dissociation constant Kd at SisCsx1 [1] was ~18 nM. On SisCsx1 [2], the “fluorescent dark-RNA cleavage (activation dose response)” value was “cleavage of a ssRNA substrate was quantified in the presence of increasing amounts of cOA4”.

As a reminder, the stoichiometry N is a count of units in the complex or per binding partner. In turn, Sulfolobus islandicus Csx1 (enzyme) registered a stoichiometry N in experiment [3] of 6.

In experiment [4], “Sulfolobus islandicus Csx1 I383A/L390D/R391A mutant (enzyme)” showed a stoichiometry N of 2.

The values are drawn from article PMC6754442, “Structure of Csx1-cOA4 complex reveals the basis of RNA decay in Type III-B CRISPR-Cas” (Nature Communications, 2019).
